According to US20060094722A1 (Eisai Co., Ltd., priority 2002, published 2006):
Where a name gives a salt, the structure may show the parent alone. Read-outs that look alike come from different tables or passages of the source.

Columns and labels:
[1] = tested on: DPPIV-intact normal male Fisher rats; assay: Influences of metformin and DPPIV inhibitors (Examples 82, 119, 120, 122, 229, 267), singly or in combination, on GLP-1 level in normal rats; assay type: in vivo, rat; conditions: 3 hours
Description: Animals: DPPIV-Intact Normal Male Fisher Rats (Purchased from CLEA Japan, Inc.)
250 μL of blood was collected from the rat using a heparinized capillary and transferred into a centrifugation tube.

[2] = biological target: T1, DPPIV obtained from swine kidney (Sus scrofa, UniProt P22411); assay: Assay for the DPPIV-inhibiting activity; assay type: biochemical; conditions: DPPIV 10 mU/mL, Gly-Pro-p-nitroanilide 0.33 mM, absorbance 405 nm
T1 construct: DPPIV obtained from swine kidney; from tissue; host or cells: swine kidney
Description: DPPIV obtained from swine kidney was dissolved in a reaction buffer (50 mM Tris-HCl (pH 7.4)/0.1% BSA) at a fmal concentration of 10 mU/mL. A 110 μL aliquot of this enzyme solution was added to the reaction system, and then 15 μL of an agent was added. The reaction solution was incubated at room temperature for 20 minutes. 25 μL of a solution containing 2 mM Gly-Pro-p-nitroanilide was added to the reaction solution (at the final concentration of 0.33 mM) to start the enzyme reaction. The reaction time was 20 minutes. 25 μL of 1N phosphate solution was added to stop the reaction. […] The degree of inhibition to the enzyme reaction was determined, and IC50 was computed based on the absorbance.

BALB/c AnCrj mice = conditions: 5-FU 60 mg/kg p.o. for 3 days
Description: Animals: BALB/c AnCrj Mice (Purchased from Charles River Japan, Inc.)
5-FU (purchased from Sigma) was suspended in a solution of 0.5% methyl cellulose, and then administered orally at a volume of 10 mL/kg/day (8 a.m. to 9 a.m.) for 3 days (60 mg/kg). […] The vehicle control group was orally administered a solution of 0.5% methyl cellulose at a volume of 10 mL/kg.
Mice were fasted for 18 hours following the afternoon administration on the third day of the administration series. On the following day, the mice were killed by cervical dislocation, and then the whole small intestine was excised and the wet weight was measured.

[3] = tested on: DPPIV-deficient male Fisher rats
Description: Animals: DPPIV-deficient male Fisher rats (purchased from Charles River Japan, Inc.)
Each test compound was suspended in a solution of 0.5% methyl cellulose at the doses indicated in Table 2, and then administered orally at a volume of 5 mL/kg. The vehicle control group was orally administered a solution of 0.5% methyl cellulose at a volume of 5 mL/kg.
An unanesthetized rat was lightly cut at the caudal vein with a razor blade and bled immediately before, and at 1, 3, and 5 hours after the administration of a test compound or a solution of 0.5% methyl cellulose. 250 μL of blood was collected from the rat using a heparinized capillary and transferred into a centrifugation tube. The supernatant obtained by centrifugation (at 10000 g at 4° C. for 2 minutes) was assayed for GLP-1 level using Active GLP-1 ELISA kit (Linco).

T1 sequence (P22411 whole entry): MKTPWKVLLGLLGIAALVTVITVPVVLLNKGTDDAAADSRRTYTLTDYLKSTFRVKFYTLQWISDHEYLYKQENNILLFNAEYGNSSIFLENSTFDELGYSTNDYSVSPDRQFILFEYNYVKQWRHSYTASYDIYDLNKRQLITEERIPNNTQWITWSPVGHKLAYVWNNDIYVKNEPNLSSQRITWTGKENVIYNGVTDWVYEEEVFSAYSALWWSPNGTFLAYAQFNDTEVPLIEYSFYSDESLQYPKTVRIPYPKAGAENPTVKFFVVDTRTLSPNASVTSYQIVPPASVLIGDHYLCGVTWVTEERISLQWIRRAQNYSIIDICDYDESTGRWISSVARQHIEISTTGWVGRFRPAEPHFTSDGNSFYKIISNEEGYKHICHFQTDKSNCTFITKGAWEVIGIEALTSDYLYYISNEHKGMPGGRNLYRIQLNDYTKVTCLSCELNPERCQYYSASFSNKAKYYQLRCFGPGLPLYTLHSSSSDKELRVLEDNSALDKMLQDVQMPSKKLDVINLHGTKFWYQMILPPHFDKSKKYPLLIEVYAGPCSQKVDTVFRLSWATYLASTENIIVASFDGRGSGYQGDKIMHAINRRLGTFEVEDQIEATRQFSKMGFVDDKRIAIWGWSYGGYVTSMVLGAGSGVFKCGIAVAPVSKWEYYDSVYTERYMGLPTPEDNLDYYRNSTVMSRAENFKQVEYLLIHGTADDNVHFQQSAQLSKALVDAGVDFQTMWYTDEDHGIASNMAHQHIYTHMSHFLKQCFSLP

Q: Which “GLP-1 concentration 3 hours after oral administration (% of Pre)” value (“GLP-1 concentration 3 hours … (% of Pre)” for short) ([1]; 10 mg/kg p.o.) does the source give for CC#CCn1c(N2CCNCC2)nc2nc(Oc3ccccc3C(N)=O)n(C)c(=O)c21 [Example 122, 2-[7-(2-Butynyl)-1-methyl-6-oxo-8-(piperazin-1-yl)-6,7-dihydro-1H-purin-2-yloxy]benzamide] here?
A: 108.2 ± 6.6 % of Pre

Q: And the IC50 ([2]; read-out: IC50)?
A: 15.3 nM

Q: Which “GLP-1 concentration 3 hours … (% of Pre)” value ([1]; 10 mg/kg p.o.) does the source give for CC#CCn1c(N2CCNCC2)nc2cnn(C)c(=O)c21 [Example 119, 3-(2-Butynyl)-5-methyl-2-(piperazin-1-yl)-3,5-dihydroimidazo[4,5-d]pyridazin-4-one] here?
A: 98.9 ± 2.2 % of Pre

Q: And the IC50 ([2]; read-out: IC50)?
A: 154 nM

Q: Which “GLP-1 concentration 3 hours … (% of Pre)” value ([1]; 10 mg/kg p.o.) does the source give for CC#CCn1c(N2CCNCC2)nc2nc(C#N)n(Cc3ccccc3C#N)c(=O)c21.Cl [Example 229, 7-(2-Butynyl)-1-(2-cyanobenzyl)-6-oxo-8-(piperazin-1-yl)-6,7-dihydro-1H-purine-2-carbonitrile hydrochloride] here?
A: 102.5 ± 1.7 % of Pre

Q: How did the “GLP-1 concentration 3 hours … (% of Pre)” value ([1]; 10 mg/kg p.o.) turn out when CC#CCn1c(N2CCCC(N)C2)nc2cnn(C)c(=O)c21.O=C(O)C(F)(F)F (stereo not drawn) [Example 120, 2-(3-Aminopiperidin-1-yl)-3-(2-butynyl)-5-methyl-3,5-dihydroimidazo[4,5-d]pyridazin-4-one trifluoroacetate] was run?
A: 104.8 ± 2.9 % of Pre

Q: With O=c1[nH]cc(F)c(=O)[nH]1 [Example 5-FU, 5-Fluorouracil] as the compound, how does the “wet weight of mouse small intestine” value (BALB/c AnCrj mice) read?
A: significantly decreased

Q: [H]/N=C(/N)N/C(=N/[H])NCCc1ccccc1 [Phenformin, phenformin] was tested. Which “GLP-1 concentration at each time point (hr) after oral administration (% of Pre)” value ([3]; 30 mg/kg p.o., 0 hr) did it give?
A: 100 ± 0.0 % of Pre

Q: And the “GLP-1 concentration at each time point (hr) after oral administration (% of Pre)” value ([3]; 30 mg/kg p.o., 1 hr)?
A: 125.3 ± 10.7 % of Pre

Q: And the “GLP-1 concentration at each time point (hr) after oral administration (% of Pre)” value ([3]; 30 mg/kg p.o., 3 hr)?
A: 120.0 ± 7.2 % of Pre

Q: And the “GLP-1 concentration at each time point (hr) after oral administration (% of Pre)” value ([3]; 30 mg/kg p.o., 5 hr)?
A: 126.7 ± 10.7 % of Pre

Q: And the “GLP-1 concentration at each time point (hr) after oral administration (% of Pre)” value ([3]; 100 mg/kg p.o., 0 hr)?
A: 100 ± 0.0 % of Pre

Q: What about the “GLP-1 concentration at each time point (hr) after oral administration (% of Pre)” value ([3]; 100 mg/kg p.o., 1 hr) of the same compound?
A: 316.9 ± 26.4 % of Pre

Q: What about the “GLP-1 concentration at each time point (hr) after oral administration (% of Pre)” value ([3]; 100 mg/kg p.o., 1 hr, listed as phenformin) of the same compound?
A: significantly elevated

Q: What about the “GLP-1 concentration at each time point (hr) after oral administration (% of Pre)” value ([3]; 100 mg/kg p.o., 3 hr) of the same compound?
A: 330.7 ± 112.4 % of Pre

Q: What about the “GLP-1 concentration at each time point (hr) after oral administration (% of Pre)” value ([3]; 100 mg/kg p.o., 3 hr, listed as phenformin) of the same compound?
A: significantly elevated

Q: And the “GLP-1 concentration at each time point (hr) after oral administration (% of Pre)” value ([3]; 100 mg/kg p.o., 5 hr)?
A: 236.5 ± 20.5 % of Pre

Q: And the “GLP-1 concentration at each time point (hr) after oral administration (% of Pre)” value ([3]; 100 mg/kg p.o., 5 hr, listed as phenformin)?
A: significantly elevated

Q: How did the IC50 ([2]; read-out: IC50) turn out when CC#CCn1c(N2CCNCC2)nc2nc(Oc3ccccc3C(N)=O)n(Cc3ccc(C#N)cc3)c(=O)c21 [Example 235, 2-[7-(2-Butynyl)-1-(4-cyanobenzyl-6-oxo-8-(piperazin-1-yl)-6,7-dihydro-1H-purin-2-yloxy]benzamide trifluoroacetate] was run?
A: 1.44 nM

Q: With CC#CCn1c(N2CCNCC2)nc2c1c(=O)n(C)c(=O)n2C(C(=O)OC)c1ccccc1 (stereo not drawn) [Example 402, Methyl[7-(2-butynyl)-1-methyl-2,6-dioxo-8-(piperazin-1-yl)-1,2,6,7-tetrahydropurin-3-yl]phenylacetate trifluoroacetate] as the compound, how does the IC50 ([2]; read-out: IC50) read?
A: 354 nM

Q: Which “GLP-1 concentration at each time point (hr) after oral administration (% of Pre)” value ([3]; 30 mg/kg p.o., 0 hr) does the source give for CCCCNC(=N)NC(=N)N [Buformin, buformin] here?
A: 100 ± 0.0 % of Pre

Q: And the “GLP-1 concentration at each time point (hr) after oral administration (% of Pre)” value ([3]; 30 mg/kg p.o., 1 hr)?
A: 118.7 ± 9.3 % of Pre

Q: And the “GLP-1 concentration at each time point (hr) after oral administration (% of Pre)” value ([3]; 30 mg/kg p.o., 3 hr)?
A: 122.7 ± 7.1 % of Pre

Q: And the “GLP-1 concentration at each time point (hr) after oral administration (% of Pre)” value ([3]; 30 mg/kg p.o., 5 hr)?
A: 114.6 ± 4.4 % of Pre

Q: And the “GLP-1 concentration at each time point (hr) after oral administration (% of Pre)” value ([3]; 100 mg/kg p.o., 0 hr)?
A: 100 ± 0.0 % of Pre

Q: What about the “GLP-1 concentration at each time point (hr) after oral administration (% of Pre)” value ([3]; 100 mg/kg p.o., 1 hr) of the same compound?
A: 163.6 ± 19.6 % of Pre

Q: What about the “GLP-1 concentration at each time point (hr) after oral administration (% of Pre)” value ([3]; 100 mg/kg p.o., 1 hr, listed as buformin) of the same compound?
A: significantly elevated

Q: What about the “GLP-1 concentration at each time point (hr) after oral administration (% of Pre)” value ([3]; 100 mg/kg p.o., 3 hr) of the same compound?
A: 171.2 ± 9.1 % of Pre

Q: And the “GLP-1 concentration at each time point (hr) after oral administration (% of Pre)” value ([3]; 100 mg/kg p.o., 5 hr)?
A: 195.8 ± 36.6 % of Pre

Q: What about the “GLP-1 concentration at each time point (hr) after oral administration (% of Pre)” value ([3]; 100 mg/kg p.o., 5 hr, listed as buformin) of the same compound?
A: significantly elevated

Q: CC#CCn1c(N2CCNCC2)nc2c1c(=O)n(CC(=O)c1ccccc1)c(=O)n2C [Example 361, 7-(2-Butynyl)-3-methyl-1-[(2-oxo-2-phenyl)ethyl]-8-(piperazin-1-yl)-3,7-dihydropurine-2,6-dione trifluoroacetate] was tested. Which IC50 ([2]; read-out: IC50) did it give?
A: 0.654 nM

Q: Which IC50 ([2]; read-out: IC50) does the source give for CC#CCn1c(N2CCNCC2)nc2nc(OC(C(=O)OC)c3ccccc3)n(C)c(=O)c21 (stereo not drawn) [Example 4, trifluoroacetate] here?
A: 211 nM

Q: With CC#CCn1c(N2CCNCC2)nc2c1c(=O)n(CCc1ccccc1)c(=O)n2CC(=O)Nc1ccccc1 [Example 421, 2-[7-(2-Butynyl)-2,6-dioxo-1-(2-phenethyl)-8-(piperazin-1-yl)-1,2,6,7-tetrahydropurin-3-yl]-N-phenylacetamide hydrochloride] as the compound, how does the IC50 ([2]; IC50 (nM)) read?
A: 3.37 nM

Q: Which “GLP-1 concentration 3 hours … (% of Pre)” value ([1]; 20 mg/kg p.o.) does the source give for CC#CCn1c(N2CCNCC2)nc2nc(C#N)n(C)c(=O)c21.O=C(O)C(F)(F)F [Example 82, 7-(2-Butynyl)-2-cyano-1-methyl-8-(piperazin-1-yl)-1,7-dihydropurin-6-one trifluoroacetate] here?
A: 97.3 ± 2.1 % of Pre

Q: For CC#CCn1c(N2CCNCC2)nc2nc(C(N)=O)n(C)c(=O)c21 [Example 83, 7-(2-Butynyl)-1-methyl-6-oxo-8-(piperazin-1-yl)-6,7-dihydro-1H-purine-2-carboxamide], which IC50 ([2]; read-out: IC50) is on record?
A: 27.4 nM

Q: For CC#CCn1c(N2CCNCC2)nc2c1c(=O)n(CCc1ccccc1)c(=O)n2CC(=O)NC1CC1 [Example 420, 2-[7-(2-Butynyl)-2,6-dioxo-1-(2-phenethyl)-8-(piperazin-1-yl)-1,2,6,7-tetrahydropurin-3-yl]-N-cyclopropyl acetamide hydrochloride], which IC50 ([2]; IC50 (nM)) is on record?
A: 1.7 nM

Q: How did the IC50 ([2]; read-out: IC50) turn out when CC#CCn1c(N2CCNCC2)nc2nc(SCCC)n(C)c(=O)c21 [Example 129, 7-(2-Butynyl)-1-methyl-8-(piperazin-1-yl)-2-propylsulfanyl-1,7-dihydropurin-6-one trifluoroacetate] was run?
A: 115 nM

Q: Which IC50 ([2]; IC50 (nM)) does the source give for O=c1c2c(cnn1CCc1ccccc1)nc(N1CCNCC1)n2Cc1ccccc1 [Example 311, 3-Benzyl-5-(2-phenylethyl)-2-(piperazin-1-yl)-3,5-dihydroimidazo[4,5-d]pyridazin-4-one trifluoroacetate] here?
A: 77.5 nM

Q: For C#CCNC(=O)Cn1c(=O)n(CCc2ccccc2)c(=O)c2c1nc(N1CCNCC1)n2CC#CC [Example 422, 2-[7-(2-Butynyl)-2,6-dioxo-1-(2-phenethyl)-8-(piperazin-1-yl)-1,2,6,7-tetrahydropurin-3-yl]-N-(2-propynyl) acetamide hydrochloride], which IC50 ([2]; IC50 (nM)) is on record?
A: 0.472 nM

Q: Cn1c(=O)n(CCc2ccccc2)c(=O)c2c1nc(N1CCNCC1)n2-c1ccccc1Cl [Example 377, 7-(2-Chlorophenyl)-3-methyl-1-(2-phenethyl)-8-(piperazin-1-yl)-3,7-dihydropurine-2,6-dione trifluoroacetate] was tested. Which IC50 ([2]; read-out: IC50) did it give?
A: 8.77 nM

Q: For CC#CCn1c(N2CCNCC2)nc2cnn(Cc3ccccc3C#N)c(=O)c21.O=C(O)C(F)(F)F [Example 267, 2-[3-(2-Butynyl)-4-oxo-2-(piperazin-1-yl)-3,4-dihydroimidazo[4,5-d]pyridazin-5-ylmethyl]benzonitrile trifluoroacetate], which “GLP-1 concentration 3 hours … (% of Pre)” value ([1]; 10 mg/kg p.o.) is on record?
A: 110.0 ± 9.0 % of Pre

Q: For CC#CCn1c(N2CCNCC2)nc2c1c(=O)n(CC(=O)c1ccccc1)c(=O)n2CCOCC [Example 413, 7-(2-Butynyl)-3-(2-ethoxyethyl)-1-(2-oxo-2-phenylethyl-8-(piperazin-1-yl)-3,7-dihydropurine-2,6-dione trifluoroacetate], which IC50 ([2]; read-out: IC50) is on record?
A: 1.95 nM
